# Test: in vitro
# Settings: human, hela cells, % viability
smiles,measurement,value
CCn1cc(S(=O)(=O)NC2(c3ccc(F)cc3)CC2)c(C)n1 [CBK282837],"viability at 28.5 h, 10 µM",92.4%
CN1Cc2ccccc2CC1C(=O)N1CCCC12CC=CC2 (stereo not shown) [CBK282838],"viability at 28.5 h, 10 µM",81.3%
O=C1CCCN1c1ccc(S(=O)(=O)NCC2CC3CCC2C3)cc1 (stereo not shown) [CBK282841],"viability at 28.5 h, 10 µM",106%
C=CCn1cc(CN(CCN(C)C)Cc2ccc(C)o2)c(C)n1 [CBK282844],"viability at 28.5 h, 10 µM",101%
CCn1cc(CN(CCN(C)C)Cc2ccc(C)o2)c(C)n1 [CBK282845],"viability at 28.5 h, 10 µM",79.6%
C=CCn1ncc(CN(CCN(C)C)Cc2ccc(C)o2)c1C [CBK282846],"viability at 28.5 h, 10 µM",81.3%
CCN(CC)C(=O)Cn1ncc2c3oc(C)cc3n(C(C)C)c2c1=O [CBK282848],"viability at 28.5 h, 10 µM",90.7%
CN1C(=O)c2ccccc2C(O)C2(C)CN(Cc3ccccc3)CC12 (stereo not shown) [CBK282849],"viability at 28.5 h, 10 µM",108%
CN(C)C(=O)CN1C(=O)[C@H]2CCCN2C(=O)c2ccccc21 [CBK282854],"viability at 28.5 h, 10 µM",91.2%
O=C1[C@@H]2CCCN2C(=O)c2ccccc2N1CCN1CCCC1 [CBK282857],"viability at 28.5 h, 10 µM",96.3%
Cc1ccc(C)c2nc3c(cc12)CN(C1CC1)C(=O)CO3 [CBK282858],"viability at 28.5 h, 10 µM",94.8%
O=c1c2snc(-c3ccc(F)cc3)c2ncn1C1CC1 [CBK282859],"viability at 28.5 h, 10 µM",76.9%
COc1ccc(NC(=O)CCn2ccc3ccncc32)c(C)c1 [CBK282860],"viability at 28.5 h, 10 µM",109%
O=C1Nc2ccccc2S(=O)(=O)N2CCCC12 (stereo not shown) [CBK282864],"viability at 28.5 h, 10 µM",112%
CC1CCc2noc(C3CCCN(C(=O)c4ccco4)C3)c2C1 (stereo not shown) [CBK282865],"viability at 28.5 h, 10 µM",110%
COCC(=O)NC1CC(C)(C)Cc2c1cnn2-c1ccc(C)cc1 (stereo not shown) [CBK282866],"viability at 28.5 h, 10 µM",118%
O=C(Cn1nc(C(F)(F)F)c2cccn2c1=O)NC1CCCC1 [CBK282867],"viability at 28.5 h, 10 µM",90.2%
CCCN(CC1CC1)C(=O)Cn1c([C@@H]2CCCO2)cc2cccnc21 [CBK282871],"viability at 28.5 h, 10 µM",94.4%
C=CCNC(=O)C1CCCN(c2nc3ccccc3n2C)C1 (stereo not shown) [CBK282872],"viability at 28.5 h, 10 µM",105%
O=C(Cc1ccc(F)cc1)N1CCOC(Cn2ccnc2)C1 (stereo not shown) [CBK282875],"viability at 28.5 h, 10 µM",91%
Cc1cc2ccccc2n2c(=O)n(CCNC(=O)C(C)C)nc12 [CBK282876],"viability at 28.5 h, 10 µM",84.2%
Cc1cc(-c2cc(=O)n(CCc3ccccc3)nc2-c2ccco2)on1 [CBK282879],"viability at 28.5 h, 10 µM",105%
Nc1cc(-c2cccs2)nn(Cc2ccccc2Cl)c1=O [CBK282884],"viability at 28.5 h, 10 µM",91%
CC(C)(C)C(=O)NCCn1c(=O)oc2ccccc21 [CBK282885],"viability at 28.5 h, 10 µM",96.4%
Cc1cnc2c(c1)cc(C(F)(F)F)n2CC(=O)NC1CC1 [CBK282887],"viability at 28.5 h, 10 µM",105%
O=C(C1CC1)N1CC2CCCC(C1)C2(O)c1cccnc1F (stereo not shown) [CBK282889],"viability at 28.5 h, 10 µM",99.6%
CC(C)C(=O)N1CCCC(n2c(=O)oc3ccc(Cl)cc32)C1 (stereo not shown) [CBK282890],"viability at 28.5 h, 10 µM",95.3%
O=C(c1ccco1)N1CCc2cc(-c3cn4c(n3)CCCC4)ccc21 [CBK282893],"viability at 28.5 h, 10 µM",98.8%
COc1ccccc1Cn1ncc2c1CCCC2NC(=O)C1CCC1 (stereo not shown) [CBK282895],"viability at 28.5 h, 10 µM",110%
Cc1ccc(CNCc2cc3c(C)nn(-c4ccccc4)c3[nH]c2=O)o1 [CBK282896],"viability at 28.5 h, 10 µM",90.8%
Cc1nn(-c2ccccc2)c2[nH]c(=O)c(CNC3CCC3)cc12 [CBK282897],"viability at 28.5 h, 10 µM",103%
Cc1nn(-c2ccccc2)c2[nH]c(=O)c(CNC(C)C)cc12 [CBK282899],"viability at 28.5 h, 10 µM",93.1%
CC1CN(Cc2c(C(C)C)[nH]c3ncccc23)CC(C)O1 (stereo not shown) [CBK282900],"viability at 28.5 h, 10 µM",93.7%
O=C1CC[C@H](NC(=O)c2cccs2)C(c2cccnc2)N1 (stereo partly shown) [CBK282901],"viability at 28.5 h, 10 µM",98.5%
CNC(=O)[C@@H]1CN(Cc2ccccc2)C[C@H]1C(=O)c1ccc(F)cc1 [CBK282902],"viability at 28.5 h, 10 µM",110%
OC1(c2ccccn2)CCN(CCc2ccccc2)CC1 [CBK282904],"viability at 28.5 h, 10 µM",87.2%
O=C(c1cccnc1)N1CCN(CC2(c3ccccc3)CC2)CC1 [CBK282906],"viability at 28.5 h, 10 µM",94.5%

# — PMC12040169 (PLOS Biology, 2025)
